SMILES strings stand for the structures. Where two headings read alike, the source gives them in different places. Some results are limits rather than exact numbers.

Assay [1] deals with T-Rex 293 cell line SC3 cells lacking increased expression of androgen receptor protein. The assay can be described thus: Cellular growth inhibition assay, T-Rex 293 SC3 cells without doxycycline (CellTiter-Glo, 72 hours). The assay is classed as cell-based. The following applies: T-Rex 293 cell line SC3 cells not exposed to doxycycline (lacking increased androgen receptor expression). The essentials:
(§1)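 Doxycycline (10 ng/mL) was either included or omitted to toggle wild-type androgen receptor expression in SC3 cells, a T-Rex 293 clone, grown in stripped-serum, phenol red-free medium. After 72 hours with compound, viable cells were quantified by CellTiter-Glo 2.0.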
A general note: In ATP-based viability assays light output follows the ATP content of the culture.

In assay [2] the test system is T-Rex 293 cell line SC3 cells having increased expression of androgen receptor protein due to exposure to doxycycline. The assay can be described thus: Cellular growth inhibition assay, T-Rex 293 SC3 cells with doxycycline (CellTiter-Glo, 72 hours). The assay is classed as cell-based. The following applies: T-Rex 293 SC3 cells with increased androgen receptor expression due to doxycycline (10 ng/mL). In outline: as §1

Assay [3] has as its system VCaP cells. Nature of the assay: Cellular growth inhibition assay for VCaP cells (CellTiter-Glo, 72 hours). Format: cell-based, human. In outline: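 Luminescent viability signal after 72 h of compound exposure gave GI50 values by four-parameter nonlinear regression. Compounds were added in 0.5% DMSO to cells plated 24 h earlier at 5000/well in DMEM containing 10% FBS.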

The term GI50 denotes the concentration that inhibits growth by half. Lower therefore signals greater sensitivity of the cells. Consider `Cc1sc2c(c1C)C(c1cccc(N3CCC4(CC3)CCN(c3ccc(C(=O)N[C@H]5CC[C@H](Oc6ccc(C#N)c(Cl)c6)CC5)nn3)C4)c1)=N[C@@H](C)c1nnc(C)n1-2` [I-685], for which the GI50 was 500 to 1500 nM in assay [1] (72 h); below 500 nM in assay [2] (72 h); below 500 nM in assay [3] (Homo sapiens, VCaP, 72 h).
As for `Cc1sc2c(c1C)C(c1cccc(OC3CC4(CCCN(c5ccc(C(=O)N[C@H]6CC[C@H](Oc7ccc(C#N)c(Cl)c7)CC6)nn5)C4)C3)c1)=N[C@@H](C)c1nnc(C)n1-2` (stereo partly drawn) [I-686], the GI50 in assay [1] is above 3000 nM; in assay [2] (72 h), below 500 nM; in assay [3] (Homo sapiens, VCaP, 72 h), below 500 nM.
For the compound `Cc1sc2c(c1C)C(c1cccc(N3CCC4(CCCN(c5ccc(C(=O)N[C@H]6CC[C@H](Oc7ccc(C#N)c(Cl)c7)CC6)nn5)C4)CC3)c1)=N[C@@H](C)c1nnc(C)n1-2` [I-687], the GI50 in assay [1] (72 h) is above 3000 nM; in assay [2] (72 h), below 500 nM; in assay [3] (Homo sapiens, VCaP, 72 h), below 500 nM.
In the case of `Cc1sc2c(c1C)C(c1cccc(CN3CCC4(CC3)CCN(c3ccc(C(=O)N[C@H]5CC[C@H](Oc6ccc(C#N)c(Cl)c6)CC5)nn3)C4)c1)=N[C@@H](C)c1nnc(C)n1-2` [I-688], the GI50 in assay [1] (72 h) was 500 to 1500 nM; in assay [2] (72 h), below 500 nM; in assay [3] (Homo sapiens, VCaP, 72 h), below 500 nM.
Regarding `Cc1sc2c(c1C)C(c1ccccc1OCCC1CCN(c3ccc(C(=O)N[C@H]4CC[C@H](Oc5ccc(C#N)c(Cl)c5)CC4)nn3)CC1)=N[C@@H](C)c1nnc(C)n1-2` [I-689], the GI50 in assay [1] (72 h) was above 3000 nM; in assay [2] (72 h), above 3000 nM; in assay [3] (Homo sapiens, VCaP, 72 h) it was above 3000 nM.
Consider `Cc1sc2c(c1C)C(c1ccccc1CC1CC3(CCN(c4ccc(C(=O)NC5CCC(Oc6ccc(C#N)c(Cl)c6)CC5)nn4)CC3)C1)=N[C@@H](C)c1nnc(C)n1-2` (stereo partly drawn) [I-690], for which the GI50 in assay [1] (72 h) was above 3000 nM; in assay [2] (72 h), above 3000 nM; in assay [3] (Homo sapiens, VCaP, 72 h) it was below 500 nM.
Regarding `Cc1sc2c(c1C)C(c1ccc(C3CCC4(CCN(c5ccc(C(=O)N[C@H]6CC[C@H](Oc7ccc(C#N)c(Cl)c7)CC6)nn5)CC4)C3)cn1)=NC1(CC1)c1nnc(C)n1-2` (stereo partly drawn) [I-691], the GI50 was above 3000 nM in assay [1] (72 h); below 500 nM in assay [2] (72 h); below 500 nM in assay [3] (Homo sapiens, VCaP, 72 h).
On to `COC[C@@H]1N=C(c2ccc(CC3CC4(CCN(c5ccc(C(=O)N[C@H]6CC[C@H](Oc7ccc(C#N)c(Cl)c7)CC6)nn5)CC4)C3)cc2)c2c(sc(C)c2C)-n2c(C)nnc21` [I-692], for which the concentration for 50% growth inhibition (GI50) in assay [1] (72 h) was below 500 nM; in assay [2] (72 h), below 500 nM; in assay [3] (Homo sapiens, VCaP, 72 h) it was below 500 nM.
`Cc1sc2c(c1C)C(c1ccc(C3CCC4(CCCN(c5ccc(C(=O)N[C@H]6CC[C@H](Oc7ccc(C#N)c(Cl)c7)CC6)nn5)C4)CC3)cc1)=NC(C(F)(F)F)c1nnc(C)n1-2` (stereo partly drawn) [I-694]: the GI50 in assay [1] (72 h) is above 3000 nM; in assay [2] (72 h) it was above 3000 nM; in assay [3] (Homo sapiens, VCaP, 72 h) it was above 3000 nM.
For the compound `Cc1sc2c(c1C)C(c1ccc(C3CCC4(CCCN(c5ccc(C(=O)N[C@H]6CC[C@H](Oc7ccc(C#N)c(Cl)c7)CC6)nn5)C4)CC3)cc1)=NC(C(F)(F)F)c1nnc(C)n1-2` (stereo partly drawn) [I-695], the GI50 in assay [1], in assay [2] and in assay [3] was above 3000 nM each time.
As for `Cc1sc2c(c1C)C(c1ccc(C3CCC4(CCCN(c5ccc(C(=O)N[C@H]6CC[C@H](Oc7ccc(C#N)c(Cl)c7)CC6)nn5)C4)CC3)cc1)=NC(C(F)(F)F)c1nnc(C)n1-2` (stereo partly drawn) [I-696], the GI50 in assay [1], in assay [2] and in assay [3] was above 3000 nM throughout.
On to `Cc1sc2c(c1C)C(c1ccc(C3CCC4(CCCN(c5ccc(C(=O)N[C@H]6CC[C@H](Oc7ccc(C#N)c(Cl)c7)CC6)nn5)C4)CC3)cc1)=NC(C(F)(F)F)c1nnc(C)n1-2` (stereo partly drawn) [I-697], for which the GI50 in assay [1], in assay [2] and in assay [3] was above 3000 nM each time.
`Cc1sc2c(c1C)C(c1ccc(N3C4CCC3CC3(CCN(c5ccc(C(=O)N[C@H]6CC[C@H](Oc7ccc(C#N)c(Cl)c7)CC6)nn5)C3)C4)cc1)=N[C@@H](C)c1nnc(C)n1-2` (stereo partly drawn) [I-698]: the GI50 is below 500 nM in assay [1]; below 500 nM in assay [2]; below 500 nM in assay [3] (Homo sapiens, VCaP, 72 h).
For the compound `Cc1sc2c(c1C)C(c1ccc(CCCC3CCCN(c4ccc(C(=O)N[C@H]5CC[C@H](Oc6ccc(C#N)c(Cl)c6)CC5)nn4)CC3)cn1)=N[C@@H](C)c1nnc(C)n1-2` (stereo partly drawn) [I-699], the GI50 is above 3000 nM in assay [1]; below 500 nM in assay [2] (72 h); below 500 nM in assay [3] (Homo sapiens, VCaP, 72 h).
As for `Cc1sc2c(c1C)C(c1ccc(CCCC3CCCN(c4ccc(C(=O)N[C@H]5CC[C@H](Oc6ccc(C#N)c(Cl)c6)CC5)nn4)CC3)cn1)=N[C@@H](C)c1nnc(C)n1-2` (stereo partly drawn) [I-700], the GI50 in assay [1], in assay [2] and in assay [3] was below 500 nM each time.
As for `Cc1sc2c(c1C)C(c1ccc(OC3CCC4(CCN(c5ccc(C(=O)N[C@H]6CC[C@H](Oc7ccc(C#N)c(Cl)c7)CC6)nn5)C4)C3)cc1)=N[C@@H](C)c1nnc(C)n1-2` (stereo partly drawn) [I-701], the GI50 in assay [1] is below 500 nM; in assay [2], below 500 nM; in assay [3] (Homo sapiens, VCaP, 72 h), below 500 nM.
As for `Cc1sc2c(c1C)C(c1ccc(OC3CCC4(CCN(c5ccc(C(=O)N[C@H]6CC[C@H](Oc7ccc(C#N)c(Cl)c7)CC6)nn5)C4)C3)cc1)=N[C@@H](C)c1nnc(C)n1-2` (stereo partly drawn) [I-702], the GI50 in assay [1] is 500 to 1500 nM; in assay [2], below 500 nM; in assay [3], below 500 nM.
For the compound `Cc1sc2c(c1C)C(c1ccc(N3C[C@H]4CN(c5ccc(C(=O)N[C@H]6CC[C@H](Oc7ccc(C#N)c(Cl)c7)CC6)nn5)C[C@H]4C3)c(F)c1)=N[C@@H](C)c1nnc(C)n1-2` [I-703], the GI50 in assay [1] (72 h) was below 500 nM; in assay [2] (72 h) it was below 500 nM; in assay [3] (Homo sapiens, VCaP, 72 h), 500 to 1500 nM.
As to `Cc1sc2c(c1C)C(c1ccc(N3C[C@@]4(C)CN(c5ccc(C(=O)N[C@H]6CC[C@H](Oc7ccc(C#N)c(Cl)c7)CC6)nn5)C[C@@]4(C)C3)cc1)=N[C@@H](C)c1nnc(C)n1-2` [I-704], the GI50 in assay [1] (72 h) is above 3000 nM; in assay [2] (72 h), below 500 nM; in assay [3] (Homo sapiens, VCaP, 72 h) it was 500 to 1500 nM.
`Cc1sc2c(c1C)C(c1ccc(N3C[C@@H]4CN(c5ccc(C(=O)N[C@H]6CC[C@H](Oc7ccc(C#N)c(Cl)c7)CC6)nn5)C[C@H]4C3)cc1)=N[C@@H](C)c1nnc(C)n1-2` [I-706]: the GI50 in assay [1], in assay [2] and in assay [3] was below 500 nM throughout.
`Cc1sc2c(c1C)C(c1cccc(N3CCC4(CCN(c5ccc(C(=O)N[C@H]6CC[C@H](Oc7ccc(C#N)c(Cl)c7)CC6)nn5)C4)C3)c1)=N[C@@H](C)c1nnc(C)n1-2` (stereo partly drawn) [I-708]: the results for the GI50 in assay [1], in assay [2] and in assay [3] were 1500 to 3000 nM, below 500 nM and below 500 nM, respectively.
For `Cc1sc2c(c1C)C(c1cccc(OC3CCC4(CC3)CCN(c3ccc(C(=O)N[C@H]5CC[C@H](Oc6ccc(C#N)c(Cl)c6)CC5)nn3)C4)c1)=N[C@@H](C)c1nnc(C)n1-2` (stereo partly drawn) [I-709], the GI50 in assay [1] is above 3000 nM; in assay [2], below 500 nM; in assay [3] (Homo sapiens, VCaP, 72 h) it was below 500 nM.
With `Cc1sc2c(c1C)C(c1cccc(N3CC4(CCCN(c5ccc(C(=O)N[C@H]6CC[C@H](Oc7ccc(C#N)c(Cl)c7)CC6)nn5)C4)C3)c1)=N[C@@H](C)c1nnc(C)n1-2` [I-710], the GI50 is above 3000 nM in assay [1] (72 h); below 500 nM in assay [2] (72 h); above 3000 nM in assay [3] (Homo sapiens, VCaP, 72 h).
Turning to `Cc1sc2c(c1C)C(c1cccc(CC3CC4(CCCN(c5ccc(C(=O)N[C@H]6CC[C@H](Oc7ccc(C#N)c(Cl)c7)CC6)nn5)C4)C3)c1)=N[C@@H](C)c1nnc(C)n1-2` (stereo partly drawn) [I-711], the GI50 in assay [1] (72 h) is above 3000 nM; in assay [2] (72 h), below 500 nM; in assay [3] (Homo sapiens, VCaP, 72 h), below 500 nM.
On to `Cc1sc2c(c1C)C(c1cccc(CC3CC4(CCCN(c5ccc(C(=O)N[C@H]6CC[C@H](Oc7ccc(C#N)c(Cl)c7)CC6)nn5)C4)C3)c1)=N[C@@H](C)c1nnc(C)n1-2` (stereo partly drawn) [I-712], for which the GI50 in assay [1] is above 3000 nM; in assay [2], below 500 nM; in assay [3], below 500 nM.
For the compound `Cc1sc2c(c1C)C(c1cccc(CC3CCC4(CC3)CCN(c3ccc(C(=O)N[C@H]5CC[C@H](Oc6ccc(C#N)c(Cl)c6)CC5)nn3)C4)c1)=N[C@@H](C)c1nnc(C)n1-2` (stereo partly drawn) [I-713], the GI50 is above 3000 nM in assay [1]; above 3000 nM in assay [2]; below 500 nM in assay [3] (Homo sapiens, VCaP, 72 h).
Consider `Cc1sc2c(c1C)C(c1cccc(CC3CCC4(CC3)CCN(c3ccc(C(=O)N[C@H]5CC[C@H](Oc6ccc(C#N)c(Cl)c6)CC5)nn3)C4)c1)=N[C@@H](C)c1nnc(C)n1-2` (stereo partly drawn) [I-714], for which the GI50 in assay [1], in assay [2] and in assay [3] was below 500 nM each time.
`Cc1sc2c(c1C)C(c1cccc(OC3CC4(CCCN(c5ccc(C(=O)N[C@H]6CC[C@H](Oc7ccc(C#N)c(Cl)c7)CC6)nn5)C4)C3)c1)=N[C@@H](C)c1nnc(C)n1-2` (stereo partly drawn) [I-715]: the GI50 in assay [1] is 500 to 1500 nM; in assay [2], below 500 nM; in assay [3] it was below 500 nM.
On to `Cc1sc2c(c1C)C(c1ccccc1OC1CC3(CCCN(c4ccc(C(=O)N[C@H]5CC[C@H](Oc6ccc(C#N)c(Cl)c6)CC5)nn4)C3)C1)=N[C@@H](C)c1nnc(C)n1-2` (stereo partly drawn) [I-716], for which the GI50 was above 3000 nM in assay [1] (72 h); above 3000 nM in assay [2] (72 h); above 3000 nM in assay [3] (Homo sapiens, VCaP, 72 h).
For the compound `Cc1sc2c(c1C)C(c1ccccc1OC1CC3(CCCN(c4ccc(C(=O)N[C@H]5CC[C@H](Oc6ccc(C#N)c(Cl)c6)CC5)nn4)C3)C1)=N[C@@H](C)c1nnc(C)n1-2` (stereo partly drawn) [I-717], the GI50 in assay [1], in assay [2] and in assay [3] was above 3000 nM each time.
Regarding `Cc1sc2c(c1C)C(c1ccc(C3CCC4(CC3)CCN(c3ccc(C(=O)N[C@H]5CC[C@H](Oc6ccc(C#N)c(Cl)c6)CC5)nn3)C4)cn1)=NC1(CC1)c1nnc(C)n1-2` (stereo partly drawn) [I-718], the GI50 in assay [1] was above 3000 nM; in assay [2] it was 1500 to 3000 nM; in assay [3] it was below 500 nM.
